Data published in patent publication US20240108738A1, “BICYCLIC PEPTIDE LIGANDS SPECIFIC FOR NK CELLS” (Bicycle Tx Limited, priority 2021, published 2024).
Numbered stars: 1 amine (or outer) side, 2 acyl side, 3 side chain; on linkers, the order of the positions; unused ones are H or OH. Bridge positions count the residues as written; N and C are the ends. Square brackets hold non-standard residues; d marks the D form. Peptide text beside a SMILES is read from it. TATA = O=C(CC[*:1])N1CN(C(=O)CC[*:2])CN(C(=O)CC[*:3])C1; X1 = C(c1nc(C[*:2])nc(C[*:3])n1)[*:1]; Pip = O=C(O)[C@@H]1CCCCN1; Nva = CCC[C@H](N)C(=O)O; Dap = NC[C@H](N)C(=O)O

These molecules were tested against CD16a (V Variant) (Homo sapiens, UniProt P08637, F176V) (assay: FcγRIII (CD16a) SPR (Method A and/or Method B), V variant). Details: not given.
Sequence of CD16a (V Variant) (P08637 17-208 F176V): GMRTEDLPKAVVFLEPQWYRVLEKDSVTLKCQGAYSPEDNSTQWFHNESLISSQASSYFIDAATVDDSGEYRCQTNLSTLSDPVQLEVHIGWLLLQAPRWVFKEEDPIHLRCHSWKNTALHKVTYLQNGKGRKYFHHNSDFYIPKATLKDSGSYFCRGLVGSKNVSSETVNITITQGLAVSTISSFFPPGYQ
Format: binding

| SMILES | Kd |
| --- | --- |
| CC(C)[C@@H]1NC(=O)[C@H](CO)NC(=O)[C@H](Cc2c[nH]c3ccccc23)NC(=O)[C@H](CCCNC(=N)N)NC(=O)[C@@H](NC(=O)[C@H](C)N)CSCc2nc3nc(n2)CSC[C@H](NC(=O)[C@@H]2CCCN2C(=O)[C@H](CC(=O)O)NC(=O)[C@H](CCC(=O)O)NC1=O)C(=O)N[C@H](C)C(=O)N[C@@H](C)C(=O)N[C@@H](Cc1c[nH]c2ccccc12)C(=O)N[C@H](C(=O)N[C@@H](C)C(N)=O)CSC3 [BCY14956, A-(SEQ ID NO: 178)-A] (H-ACRWSVEDPC[dA]AWCA-NH2; linker 2-10-14 via X1; N-terminus assumed) | 2150 nM |
| C[C@H](N)C(=O)N[C@H]1CSCc2nc3nc(n2)CSC[C@H](NC(=O)[C@@H]2CCCN2C(=O)[C@H](CCC(=O)O)NC(=O)[C@H](CO)NC(=O)[C@H](Cc2ccccc2)NC(=O)[C@H](Cc2c[nH]cn2)NC(=O)[C@H](Cc2c[nH]c4ccccc24)NC(=O)[C@H](CCCNC(=N)N)NC1=O)C(=O)N[C@H](C)C(=O)N[C@@H](C)C(=O)N[C@@H](Cc1c[nH]c2ccccc12)C(=O)N[C@H](C(=O)N[C@@H](C)C(N)=O)CSC3 [BCY20392, A-(SEQ ID NO: 235)-A] (H-ACRWHFSEPC[dA]AWCA-NH2; linker 2-10-14 via X1; C-terminus assumed) | 385 nM |

Same assay, conditions: SPR Method A and/or B, Table 6B; read-out: Kd (nM) (V Variant)

| SMILES | Kd |
| --- | --- |
| CC(C)C[C@@H]1NC(=O)[C@@H]2CCCN2C(=O)[C@H](Cc2c[nH]cn2)NC(=O)[C@@H]2CSCCC(=O)N3CN(CN(C3)C(=O)CCSC[C@H](NC(=O)[C@H](C)N)C(=O)N3CCC[C@H]3C(=O)N3CCC[C@H]3C(=O)N[C@@H]([C@@H](C)O)C(=O)N[C@@H](C(C)C)C(=O)N[C@@H](Cc3ccc(O)cc3)C(=O)N2)C(=O)CCSC[C@@H](C(=O)N[C@@H](C)C(=O)N(C)CC(=O)N(C)CC(=O)N(C)CC(=O)N(C)CC(=O)N(C)CC(=O)N(C)CC(=O)N[C@@H](CCCCNC(=O)CCCC[C@@H]2SC[C@@H]3NC(=O)N[C@@H]32)C(N)=O)NC(=O)[C@H](CC(=O)O)NC1=O [BCY12621, A-(SEQ ID NO: 60)-A-[Sar6]-[KBiot]] | 1900 nM |

What follows are molecules tested against CD16a (F Variant) (Homo sapiens, UniProt P08637) (assay: FcγRIII (CD16a) SPR (Method A and/or Method B), F variant). Details: not given.
Format: binding

| SMILES | Kd |
| --- | --- |
| C[C@H](N)C(=O)N[C@H]1CSCc2nc3nc(n2)CSC[C@H](NC(=O)[C@@H]2CCCN2C(=O)[C@H](CCC(=O)O)NC(=O)[C@H](CO)NC(=O)[C@@H]2CCN2C(=O)[C@H](Cc2c[nH]cn2)NC(=O)[C@H](Cc2c[nH]c4ccccc24)NC(=O)[C@H](CCCNC(=N)N)NC1=O)C(=O)NCC(=O)N[C@@H](C)C(=O)N[C@@H](Cc1c[nH]c2ccccc12)C(=O)N[C@H](C(=O)N[C@@H](C)C(N)=O)CSC3 [BCY20382, A-(SEQ ID NO: 227)-A] | 0.385 µM |

What follows are molecules tested against T1, Fc-tagged human NKp46 (Homo sapiens, UniProt O76036) (assay: NKp46 SPR assay (Method 1 and/or Method 2)). Details: SPR Method 1 and/or Method 2, Table 3B.
T1 construct: purchased ACROBiosystems NC1-H5257
T1 sequence (O76036 22-304): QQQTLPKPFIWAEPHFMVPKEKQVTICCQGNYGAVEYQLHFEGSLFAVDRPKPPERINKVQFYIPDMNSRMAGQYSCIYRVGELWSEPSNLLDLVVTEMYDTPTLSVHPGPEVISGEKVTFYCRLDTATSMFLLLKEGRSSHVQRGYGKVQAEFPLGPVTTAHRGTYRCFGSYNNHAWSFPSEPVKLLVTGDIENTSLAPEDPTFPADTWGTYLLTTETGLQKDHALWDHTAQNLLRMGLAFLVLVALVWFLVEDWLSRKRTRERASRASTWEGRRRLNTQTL
Format: binding
Summary of the method: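 Method 1: biotinylated Avi-tag NKp46-Fc on streptavidin chip, peptides to 100-5000 nM top in PBS/0.05% Tween 20, 0.5% DMSO; 1:1 kinetic fit with mass transport. Method 2: NKp46-Fc captured by anti-Fc, PBS-P+ 2% DMSO; steady-state or kinetic 1:1 fit. Both 25° C, 50 μl/min, 60 s association.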

| SMILES | Kd |
| --- | --- |
| CSCC[C@@H]1NC(=O)[C@@H]2CSCCC(=O)N3CN(CN(C3)C(=O)CCSC[C@H](NC(=O)[C@@H](N)CCCCN)C(=O)N[C@@H](CC(N)=O)C(=O)N[C@@H](CC(C)C)C(=O)N[C@@H](CCC(N)=O)C(=O)N[C@@H](C)C(=O)N3CCC[C@H]3C(=O)N2)C(=O)CCSC[C@@H](C(=O)N[C@@H](C)C(N)=O)NC(=O)[C@H](C(C)C)NC(=O)[C@H](CCCCN)NC(=O)CNC(=O)[C@H]([C@@H](C)O)NC(=O)[C@H](CC(C)C)NC1=O [BCY19695, K-(SEQ ID NO: 4)-A] (H-KCNLQAPCMLTGKVCA-NH2; linker 2-8-15 via TATA; N-terminus assumed) | 2.38 µM |
| CSCC[C@@H]1NC(=O)[C@@H]2CSCCC(=O)N3CN(CN(C3)C(=O)CCSC[C@@H](C(=O)N[C@@H](C)C(N)=O)NC(=O)[C@H](C(C)C)NC(=O)[C@H](CCCCN)NC(=O)CNC(=O)[C@H]([C@@H](C)O)NC(=O)[C@H](CC(C)C)NC1=O)C(=O)CCSC[C@H](NC(=O)[C@H](C)N)C(=O)N[C@@H](CC(N)=O)C(=O)N[C@@H](CC(C)C)C(=O)N[C@@H](CCC(N)=O)C(=O)N[C@@H](C)C(=O)N1CCCC[C@H]1C(=O)N2 [BCY19701, A-(SEQ ID NO: 92)-A] (H-ACNLQA[Pip]CMLTGKVCA-NH2; linker 2-8-15 via TATA) | 4.03 µM |
| CSCC[C@@H]1NC(=O)[C@@H]2CSCCC(=O)N3CN(CN(C3)C(=O)CCSC[C@@H](C(=O)N[C@@H](C)C(N)=O)NC(=O)[C@H](C(C)C)NC(=O)[C@H](CCCCN)NC(=O)CNC(=O)[C@H]([C@@H](C)O)NC(=O)[C@H](C(C)C)NC1=O)C(=O)CCSC[C@H](NC(=O)[C@H](C)N)C(=O)N[C@@H](CC(N)=O)C(=O)N[C@@H](CC(C)C)C(=O)N[C@@H](CCC(N)=O)C(=O)N[C@@H](C)C(=O)N1CCC[C@H]1C(=O)N2 [BCY19702, A-(SEQ ID NO: 93)-A] (H-ACNLQAPCMVTGKVCA-NH2; linker 2-8-15 via TATA; N-terminus assumed) | 2.68 µM |
| CC[C@H](C)[C@@H]1NC(=O)CNC(=O)[C@H](Cc2c[nH]c3cc(C)ccc23)NC(=O)[C@H](CCC(N)=O)NC(=O)[C@@H]2CSCCC(=O)N3CN(CN(C3)C(=O)CCSC[C@@H](C(=O)N[C@@H](C)C(N)=O)NC1=O)C(=O)CCSC[C@H](NC(=O)[C@H](C)N)C(=O)N[C@@H](CC(=O)O)C(=O)N[C@@H](CC(C)C)C(=O)N[C@@H]([C@@H](C)O)C(=O)N[C@@H]([C@@H](C)O)C(=O)N[C@@H](Cc1c[nH]cn1)C(=O)N[C@@H](CC(N)=O)C(=O)N2 [BCY19722, A-(SEQ ID NO: 160)-A] | 1.46 µM |
| CC[C@H](C)[C@@H]1NC(=O)CNC(=O)[C@H](Cc2c[nH]c3c(C)cccc23)NC(=O)[C@H](CCC(N)=O)NC(=O)[C@@H]2CSCCC(=O)N3CN(CN(C3)C(=O)CCSC[C@@H](C(=O)N[C@@H](C)C(N)=O)NC1=O)C(=O)CCSC[C@H](NC(=O)[C@H](C)N)C(=O)N[C@@H](CC(=O)O)C(=O)N[C@@H](CC(C)C)C(=O)N[C@@H]([C@@H](C)O)C(=O)N[C@@H]([C@@H](C)O)C(=O)N[C@@H](Cc1c[nH]cn1)C(=O)N[C@@H](CC(N)=O)C(=O)N2 [BCY19723, A-(SEQ ID NO: 161)-A] | 2.27 µM |

More lines, now with the values ahead:

| Kd | SMILES |
| --- | --- |
| 3.73 µM | CSCC[C@@H]1NC(=O)[C@@H]2CSCCC(=O)N3CN(CN(C3)C(=O)CCSC[C@H](NC(=O)[C@@H](N)CN)C(=O)N[C@@H](CC(N)=O)C(=O)N[C@@H](CC(C)C)C(=O)N[C@@H](CCC(N)=O)C(=O)N[C@@H](C)C(=O)N3CCC[C@H]3C(=O)N2)C(=O)CCSC[C@@H](C(=O)N[C@@H](C)C(N)=O)NC(=O)[C@H](C(C)C)NC(=O)[C@H](CCCCN)NC(=O)CNC(=O)[C@H]([C@@H](C)O)NC(=O)[C@H](CC(C)C)NC1=O [BCY19697, Dap-(SEQ ID NO: 4)-A] (H-[Dap]CNLQAPCMLTGKVCA-NH2; linker 2-8-15 via TATA) |
| 1.62 µM | CCC[C@@H]1NC(=O)[C@H](CCSC)NC(=O)[C@@H]2CSCCC(=O)N3CN(CN(C3)C(=O)CCSC[C@@H](C(=O)N[C@@H](C)C(N)=O)NC(=O)[C@H](C(C)C)NC(=O)[C@H](CCCCN)NC(=O)CNC(=O)[C@H]([C@@H](C)O)NC1=O)C(=O)CCSC[C@H](NC(=O)[C@H](C)N)C(=O)N[C@@H](CC(N)=O)C(=O)N[C@@H](CC(C)C)C(=O)N[C@@H](CCC(N)=O)C(=O)N[C@@H](C)C(=O)N1CCC[C@H]1C(=O)N2 [BCY19704, A-(SEQ ID NO: 95)-A] (H-ACNLQAPCM[Nva]TGKVCA-NH2; linker 2-8-15 via TATA; N-terminus assumed) |
| 2.75 µM | CSCC[C@@H]1NC(=O)[C@@H]2CSCCC(=O)N3CN(CN(C3)C(=O)CCSC[C@@H](C(=O)N[C@@H](C)C(N)=O)NC(=O)[C@H](C(C)C)NC(=O)[C@H](CCCCN)NC(=O)CNC(=O)[C@H]([C@@H](C)O)NC(=O)[C@H](Cc3c[nH]cn3)NC1=O)C(=O)CCSC[C@H](NC(=O)[C@H](C)N)C(=O)N[C@@H](CC(N)=O)C(=O)N[C@@H](CC(C)C)C(=O)N[C@@H](CCC(N)=O)C(=O)N[C@@H](C)C(=O)N1CCC[C@H]1C(=O)N2 [BCY19711, A-(SEQ ID NO: 100)-A] (H-ACNLQAPCMHTGKVCA-NH2; linker 2-8-15 via TATA; N-terminus assumed) |
| 3.14 µM | CC(C)C[C@@H]1NC(=O)[C@H](CC(N)=O)NC(=O)[C@@H](NC(=O)[C@H](C)N)CSCCC(=O)N2CN3CN(C2)C(=O)CCSC[C@H](NC(=O)[C@@H]2CCCN2C(=O)[C@H](C)NC(=O)[C@H](CCC(N)=O)NC1=O)C(=O)N[C@@H](CC(C)C)C(=O)N[C@@H](Cc1c[nH]cn1)C(=O)N[C@@H]([C@@H](C)O)C(=O)NCC(=O)N[C@@H](CCCCN)C(=O)N[C@@H](C(C)C)C(=O)N[C@H](C(=O)N[C@@H](C)C(N)=O)CSCCC3=O [BCY19712, A-(SEQ ID NO: 101)-A] (H-ACNLQAPCLHTGKVCA-NH2; linker 2-8-15 via TATA; C-terminus assumed) |
| 1.83 µM | CSCC[C@@H]1NC(=O)[C@@H]2CSCCC(=O)N3CN(CN(C3)C(=O)CCSC[C@@H](C(=O)N[C@@H](C)C(N)=O)NC(=O)[C@H](C(C)C)NC(=O)[C@H](CCCCN)NC(=O)CNC(=O)[C@H]([C@@H](C)O)NC(=O)[C@H](CCC(N)=O)NC1=O)C(=O)CCSC[C@H](NC(=O)[C@H](C)N)C(=O)N[C@@H](CC(N)=O)C(=O)N[C@@H](CC(C)C)C(=O)N[C@@H](CCC(N)=O)C(=O)N[C@@H](CCC(N)=O)C(=O)N[C@@H](C)C(=O)N2 [BCY19713, A-(SEQ ID NO: 102)-A] (H-ACNLQQACMQTGKVCA-NH2; linker 2-8-15 via TATA; N-terminus assumed) |
| 1.11 µM | CC[C@H](C)[C@@H]1NC(=O)CNC(=O)[C@H](Cc2c[nH]c3ccccc23)NC(=O)[C@H](CCC(N)=O)NC(=O)[C@@H]2CSCCC(=O)N3CN(CN(C3)C(=O)CCSC[C@H](N)C(=O)N[C@@H](CC(=O)O)C(=O)N[C@@H](CC(C)C)C(=O)N[C@@H]([C@@H](C)O)C(=O)N[C@@H]([C@@H](C)O)C(=O)N[C@@H](Cc3c[nH]cn3)C(=O)N[C@@H](CC(N)=O)C(=O)N2)C(=O)CCSC[C@@H](C(=O)N[C@@H](C)C(N)=O)NC1=O [BCY19718, (SEQ ID NO: 11)-A] (H-CDLTTHNCQWGICA-NH2; linker 1-8-13 via TATA) |
